Assay results: PMC6403188, “Species-Specific Structural Requirements of Alpha-Branched Trehalose Diester Mincle Agonists” (Frontiers in Immunology, 2019)

Columns and labels:
BALB/c mice = test: Splenocyte restimulation with M72 and intracellular cytokine staining of CD4/CD8 T cells after vaccination; assay type: in vivo, mouse; details: 0.125 μg antigen plus 2, 10, or 50 nmol liposomal adjuvant, i.m. two times, spleens 5 days post-secondary
Protocol: Animal studies were carried out in an OLAW and AAALAC accredited vivarium in accordance with University of Montana's IACUC guidelines for the care and use of laboratory animals. Groups of 10–14 BALB/c mice were vaccinated intramuscularly with 0.125 μg M72 antigen and indicated concentrations of various CLR adjuvant candidates (liposomal formulations) in 50 μl total volume per injection. After 14 days, blood and serum samples were collected and a secondary vaccination was administered. At day 19 (5 days post-secondary vaccination), 3–6 mice per group were euthanized and spleens were harvested the assessment of cell-mediated immunity. At day 28 (14 days post booster vaccination) the remaining 7 mice in each group were euthanized and blood was collected for the measurement of M72 specific humoral immunity.
Spleens were harvested from vaccinated mice 5 days after secondary injections and splenocytes were harvested by disruption of the spleens through a 100 μm filter. Red blood cells were lysed by incubation with red blood cell lysis buffer (Sigma) for 5 min followed by washing in 1x PBS. Cells were plated in a 96 well plate at 5 × 10^6 cells/well in 200 μL complete RPMI1640 media. Cells were incubated with 1 μg/mL M72 antigen for […] at 37°C. After 7 h, GolgiPlug (Brefeldin A, BD Biosciences) was added to each well and incubated at 37°C for a further 12 h. Following incubation, cells were stained with the cell surface antibodies against CD3e PerCP-Cy5.5 (Tonbo Biosciences, 145-2C11), CD4a APC-Cy7 (Tonbo Biosciences, RM4-5) and CD8a PE-Cy7 (Tonbo Biosciences, 53–6.7) and viability stain (Ghost 510, Tonbo Biosciences). Cells were treated with cytofix/cytoperm (BD) and stained with anti-IFNγ PE-CF594 (BD, XMG1.2), anti-IL2 FITC (Biolegend, JES6-5H4), anti-IL-5 PE (BD, TRFK5), anti-IL17A BV421 (Biolegend, TC11-18H10.1), and anti-TNFα APC (Invitrogen, MP6-XT22). Data was collected using an LSRII flow cytometer (BD) and analyzed using FlowJo 10.0 software (TreeStar). Splenocytes were gated on live, single cells, then CD3+ to identify all T cells, then gated as CD4+CD8- to identify CD4 T cells or CD4-CD8+ to identify CD8 T cells. Gates for intracellular cytokine positive CD4 or CD8 T cells are set based on re-stimulation of naïve splenocytes. Gating strategies for the detection of antigen specific CD4+ and CD8+ T cells are outlined in Supplemental Figure 3.
Figure 7 Induction of IL-17 producing CD4+ and CD8+ T cells from an αTDE adjuvanted M72 vaccine. BALB/c mice, 10 per group, were immunized two times i.m. with 0.125 μg antigen plus 2, 10, or 50 nmol of the indicated adjuvant. Spleens were harvested from a subset of 3 mice per group at 5 days post-secondary vaccination. Splenocytes were restimulated with 1 μg/mL whole antigen and transport inhibitors followed by surface staining for CD3, CD4, and CD8 and then intracellular cytokine staining. Data represent percentage of live, CD3^+/CD4^+, left, or CD3^+/CD8^+, right, cells that are also positive for IL-17A upon stimulation.
Figure 8 B16 liposomes biases a Th17/Th2 adaptive immune response. BALB/c mice, 14 per group, were immunized twice, 14 days apart, i.m with 0.1, 1, or 10 μg of M72 antigen plus either blank DDA:DSPC liposome or B16 loaded (10 nmol final dose) liposome. (A,B) M72-specific serum antibody titers at 14 days post-secondary vaccination. (C–F) Spleens were harvested from mice at 5 days post-secondary vaccination and restimulated with 1 μg/mL whole antigen and transport inhibitors followed by surface staining for CD3, CD4, and CD8 and then intracellular cytokine staining. (C) Percent of live, CD3^+/CD4^+/IL5+ cells, (D) Percent of live, CD3^+/CD8^+/IFNγ+ cells, (E) Percent of live, CD3^+/CD4^+/IL17+ cells, and (F) Percent of live, CD3^+/CD8^+/IL17+ cells. ^*p < 0.05, ^**p < 0.01, ^****p < 0.001.
Supplemental Figure 10. Production of IFNɣ, IL-2, IL-5 or TNFα by CD4 or CD8 T cells in response to various CLR compounds. […]

THP-1 cells = test: TNFα production from THP-1 cells (ELISA); assay type: cell-based, human; details: plate-coated compound, 24 h
Protocol: Supernatants were harvested from treated cells following 18–24 h of incubation. Supernatants were analyzed using a DuoSet TNFα ELISA (R&D Systems, Minneapolis, MN) or Luminex multiplex panel for analytes TNFα, IL-1β, IL-6, IFNγ, IL-12p70, and IL-23 (R&D Systems) per the manufacturer's instructions. Multiplex analysis was performed using a Luminex 200 instrument (Luminex Corporation) and analyzed with StarStation2.3 software. ELISAs were read on a plate reader at 450 nm and cytokine concentration was calculated by fitting the standard curve OD values to a 4-parameter logistical model using curve fitting software (XLfit, IDBS, Alameda, CA).
Next, investigation into activity of the alpha-branched TDE compounds was extended to include both human and murine monocytic cell lines, THP-1 and RAW264.7, respectively. These cell lines have previously been reported as responsive to the Mincle receptor agonists TDM and TDB ([30], [31]).
Figure 3 TNFα production from human THP-1 cells in response to stimulation with synthetic αTDE compounds. The indicated compounds were dissolved in 50% isopropanol/isooctane, serially diluted in vehicle and then dried to the bottom of a tissue culture plate. THP-1 cells were applied to the compound-coated plates and incubated at 37°C; supernatant was harvested 24 h later and analyzed for TNFα via ELISA (A-E). Results from the 200 μg/ml concentration vs. each compounds acyl chain length are shown in (F). Data points are average of at least two independent experiments ± SD.

## CCCCCCCCCCCCCCCCCCCCCC(=O)OC[C@H]1O[C@H](O[C@H]2O[C@H](COC(=O)CCCCCCCCCCCCCCCCCCCCC)[C@@H](O)[C@H](O)[C@H]2O)[C@H](O)[C@@H](O)[C@@H]1O [TDB, trehalose dibehenate, reference compound]
BALB/c mice
  IL-17+ CD4+ and CD8+ T cells (Th17 response) after M72 re-stimulation: able to boost Th17
THP-1 cells
  TNFα induction from THP-1 cells (in words): activity at the highest concentrations tested
